Experimental data taken from patent publication US11572590B2, “Methods for evaluating tumor cell spheroids using 3D microfluidic cell culture device” (Dana-Farber Cancer Institute, Inc., priority 2017, dated 2023).
Read-outs that look alike come from different tables or passages of the source.

What was measured:
Experiment in all cases: SelectScreen Kinase Profiling, single point inhibition and IC50 for off-target kinases
Type in all cases: biochemical
off-target kinases [1] = target: off-target kinases (Homo sapiens, UniProt P42685); conditions: FRK (PTK5), ZLYTE, ATP Km app
off-target kinases (Homo sapiens, UniProt P42685), sequence (P42685 whole entry): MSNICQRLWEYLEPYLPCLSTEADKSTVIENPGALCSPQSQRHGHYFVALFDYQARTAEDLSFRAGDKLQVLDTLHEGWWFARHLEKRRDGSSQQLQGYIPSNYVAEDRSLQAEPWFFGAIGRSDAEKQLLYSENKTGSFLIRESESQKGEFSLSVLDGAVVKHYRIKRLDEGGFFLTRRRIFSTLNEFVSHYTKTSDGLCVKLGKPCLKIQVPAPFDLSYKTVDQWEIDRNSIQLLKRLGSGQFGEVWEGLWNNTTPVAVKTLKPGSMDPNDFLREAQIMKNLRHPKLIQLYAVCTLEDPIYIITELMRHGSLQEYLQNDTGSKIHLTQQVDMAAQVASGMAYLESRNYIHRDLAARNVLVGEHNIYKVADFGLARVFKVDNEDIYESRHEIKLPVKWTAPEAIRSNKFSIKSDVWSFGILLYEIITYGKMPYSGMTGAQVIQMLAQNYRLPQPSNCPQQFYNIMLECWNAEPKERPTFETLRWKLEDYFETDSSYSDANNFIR

off-target kinases [2] = target: off-target kinases (Homo sapiens, UniProt Q9Y2H1); conditions: STK38L (NDR2), LanthaScreen Binding
off-target kinases (Homo sapiens, UniProt Q9Y2H1), sequence (Q9Y2H1 whole entry): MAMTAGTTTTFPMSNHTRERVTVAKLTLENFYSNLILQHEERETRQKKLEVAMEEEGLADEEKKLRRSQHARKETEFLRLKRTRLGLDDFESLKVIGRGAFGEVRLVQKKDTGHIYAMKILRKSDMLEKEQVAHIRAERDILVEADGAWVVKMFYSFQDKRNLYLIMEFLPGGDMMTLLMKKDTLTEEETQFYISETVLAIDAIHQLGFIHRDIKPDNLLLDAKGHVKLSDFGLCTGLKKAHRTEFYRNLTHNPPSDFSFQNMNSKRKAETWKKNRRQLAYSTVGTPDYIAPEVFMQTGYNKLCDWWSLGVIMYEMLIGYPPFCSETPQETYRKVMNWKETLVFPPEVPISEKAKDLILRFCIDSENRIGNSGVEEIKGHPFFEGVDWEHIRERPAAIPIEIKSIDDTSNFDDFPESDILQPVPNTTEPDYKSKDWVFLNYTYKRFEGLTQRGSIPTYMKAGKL

off-target kinases [3] = target: T1, off-target kinases (Homo sapiens, UniProt P41743); conditions: PRKCI (PKC iota), ZLYTE, ATP Km app
T1 sequence (P41743 1-596): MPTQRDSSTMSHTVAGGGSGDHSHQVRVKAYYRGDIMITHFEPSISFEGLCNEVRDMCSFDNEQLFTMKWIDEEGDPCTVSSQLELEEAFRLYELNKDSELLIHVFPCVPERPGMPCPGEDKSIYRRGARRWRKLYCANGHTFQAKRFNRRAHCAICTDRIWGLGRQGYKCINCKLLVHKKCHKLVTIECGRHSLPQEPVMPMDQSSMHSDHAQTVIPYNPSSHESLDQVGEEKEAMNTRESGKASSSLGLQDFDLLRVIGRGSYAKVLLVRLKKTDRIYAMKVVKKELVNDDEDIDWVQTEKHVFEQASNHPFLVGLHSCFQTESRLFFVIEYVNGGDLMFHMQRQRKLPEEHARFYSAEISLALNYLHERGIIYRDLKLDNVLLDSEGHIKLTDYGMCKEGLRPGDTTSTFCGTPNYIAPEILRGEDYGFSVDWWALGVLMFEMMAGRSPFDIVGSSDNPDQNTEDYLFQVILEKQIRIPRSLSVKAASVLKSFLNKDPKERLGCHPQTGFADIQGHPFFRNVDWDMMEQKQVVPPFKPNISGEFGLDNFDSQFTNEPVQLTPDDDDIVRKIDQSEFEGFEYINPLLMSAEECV

off-target kinases [4] = target: T2, off-target kinases (Homo sapiens, UniProt O00444); conditions: PLK4, LanthaScreen Binding
T2 sequence (O00444 1-970): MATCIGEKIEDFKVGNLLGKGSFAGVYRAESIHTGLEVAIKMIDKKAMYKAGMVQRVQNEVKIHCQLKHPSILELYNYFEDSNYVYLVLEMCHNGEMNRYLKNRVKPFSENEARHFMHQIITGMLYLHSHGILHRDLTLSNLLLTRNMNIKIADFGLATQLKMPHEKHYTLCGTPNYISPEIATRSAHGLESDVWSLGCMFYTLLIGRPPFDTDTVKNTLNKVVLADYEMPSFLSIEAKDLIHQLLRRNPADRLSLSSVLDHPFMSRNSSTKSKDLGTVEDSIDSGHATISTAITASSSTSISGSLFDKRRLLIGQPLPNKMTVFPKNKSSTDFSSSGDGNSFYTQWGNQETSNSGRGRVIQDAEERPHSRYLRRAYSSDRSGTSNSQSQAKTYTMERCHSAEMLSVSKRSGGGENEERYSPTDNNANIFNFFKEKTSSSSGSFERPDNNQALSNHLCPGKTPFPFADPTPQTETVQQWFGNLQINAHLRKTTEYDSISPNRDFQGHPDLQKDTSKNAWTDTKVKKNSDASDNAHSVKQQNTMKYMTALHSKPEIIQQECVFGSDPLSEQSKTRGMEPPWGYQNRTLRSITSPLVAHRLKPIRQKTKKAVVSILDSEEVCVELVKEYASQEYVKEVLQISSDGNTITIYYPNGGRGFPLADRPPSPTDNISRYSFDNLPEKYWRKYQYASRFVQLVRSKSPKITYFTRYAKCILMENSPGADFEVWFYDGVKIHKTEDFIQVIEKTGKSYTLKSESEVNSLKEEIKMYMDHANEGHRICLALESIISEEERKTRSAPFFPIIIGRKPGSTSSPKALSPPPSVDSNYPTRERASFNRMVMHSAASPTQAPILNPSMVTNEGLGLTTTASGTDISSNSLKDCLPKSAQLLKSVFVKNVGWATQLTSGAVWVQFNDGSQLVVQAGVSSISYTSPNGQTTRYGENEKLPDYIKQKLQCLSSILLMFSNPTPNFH

## N#Cc1cc(-c2ncnc(Nc3ccc(N4CCN(C5COC5)CC4)cc3)n2)ccc1OC1CCOCC1 [Compound 1, 5-(4-((4-(4-(oxetan-3-yl)piperazin-1-yl)phenyl)amino)-1,3,5-triazin-2-yl)-2-((tetrahydro-2H-pyran-4-yl)oxy)benzonitrile]
off-target kinases [1]; read-out: % Inhibition 1
  inhibition: 11%
off-target kinases [1]; read-out: % Inhibition 2
  inhibition: 13%
off-target kinases [1]; read-out: % Inhibition Avg
  inhibition: 12%
off-target kinases [2]; read-out: % Inhibition 1
  inhibition: 30%
off-target kinases [2]; read-out: % Inhibition 2
  inhibition: 38%
off-target kinases [2]; read-out: % Inhibition Avg
  inhibition: 34%
off-target kinases [3]; read-out: % Inhibition 1
  inhibition: 5%
off-target kinases [3]; read-out: % Inhibition 2
  inhibition: 7%
off-target kinases [3]; read-out: % Inhibition Avg
  inhibition: 6%
off-target kinases [4]; read-out: % Inhibition 1
  inhibition: 96%
off-target kinases [4]; read-out: % Inhibition 2
  inhibition: 95%
off-target kinases [4]; read-out: % Inhibition Avg
  inhibition: 96%
